{"source": "patent US10449547B2", "about": "“Preparation of a powdery pharmaceutical composition by means of cryo-milling” (GRÜNENTHAL GMBH, priority 2013, dated 2019)", "assay": "Relative alpha-tocopherol content within blend before and after cryo-milling", "assay_type": "physicochemical", "text": "Relative Alpha-Tocopherol Content within Blend Before and after Cryo-Milling: […]", "data": [{"smiles": "Cc1c(C)c2c(c(C)c1O)CC[C@@](C)(CCC[C@H](C)CCC[C@H](C)CCCC(C)C)O2", "note": "[alpha-tocopherol]", "values": [{"measurement": "degradation of alpha-tocopherol with cryo-milling process", "value": "did not degrade"}]}]}
